According to patent US12421254B2, “KRAS modulators and uses thereof” (Quanta Therapeutics, Inc., priority 2023, dated 2025):

Tests used:
[1] = system: phospho-ERK in GP2D (KRAS-G12D) cells; assay: pERK In Cell Western (ICW) assay (Method B), GP2D; format: cell-based; conditions: GP2d, 3 h, Table 4
Outline: (§1)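 Here IC50 reflects phospho-ERK suppression after 3 h compound exposure at 37 °C in cells grown in 10% FBS medium. Signal is normalized to DRAQ5 DNA stain and to blank control wells.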

[2] = system: phospho-ERK in SW620 (KRAS-G12V) cells; assay: pERK In Cell Western (ICW) assay (Method B), SW620; format: cell-based; conditions: Homo sapiens, SW-620, 3 h, Table 4
Outline: as §1

[3] = target: GST-tagged KRAS-G12D (2-169) (Homo sapiens, UniProt P01116, G12D); assay: Nucleotide exchange assay (NEA), SOS-mediated, HTRF, KRAS G12D; format: biochemical; conditions: Table 4; IC50 extracted at 30 min; 20 nM SOScat; read-out: NEA G12D IC50
Sequence of GST-tagged KRAS-G12D (2-169) (P01116 2-169 isoform P01116-2 G12D): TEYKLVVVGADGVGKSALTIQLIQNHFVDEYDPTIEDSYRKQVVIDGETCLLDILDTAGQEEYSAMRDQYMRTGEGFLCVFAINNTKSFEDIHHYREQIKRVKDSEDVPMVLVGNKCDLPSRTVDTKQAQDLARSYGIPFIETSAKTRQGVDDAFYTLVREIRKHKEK
Outline: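 Compound preincubated 1 h at RT with 0.25 nM GST-KRAS-G12D (2-169) and anti-GST Tb donor, then 20 nM SOS1cat (564-1049) and 150 nM GTP-DY-647P1 added; pH 7.3 HEPES buffer with MgCl2 and DTT. HTRF monitored at RT; % inhibition versus DMSO and no-SOS blank, 4-parameter IC50 taken at 30 min.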

[4] = target: GST-tagged KRAS-G12V (2-169) (Homo sapiens, UniProt P01116, G12V); assay: Nucleotide exchange assay (NEA), SOS-mediated, HTRF, KRAS G12V; format: biochemical; conditions: Table 4; IC50 extracted at 90 min; 80 nM SOS
Sequence of GST-tagged KRAS-G12V (2-169) (P01116 2-169 isoform P01116-2 G12V): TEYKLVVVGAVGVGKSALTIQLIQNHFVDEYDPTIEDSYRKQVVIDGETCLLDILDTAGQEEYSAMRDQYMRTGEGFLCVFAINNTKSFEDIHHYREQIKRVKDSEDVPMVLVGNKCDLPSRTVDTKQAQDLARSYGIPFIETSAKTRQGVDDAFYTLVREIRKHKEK
Outline: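 GST-KRAS-G12V (2-169), 0.25 nM, pre-incubated 1 h at RT with compound, then SOS1cat (564-1049) 80 nM and GTP-DY-647P1 150 nM added in HEPES pH 7.3 buffer with MgCl2 and DTT. HTRF via anti-GST Tb cryptate read over 90 min; IC50 from 4-parameter fit at 90 min, blanked to no-SOS reactions.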

Row | Structure (SMILES) | IC50 [1] [nM] | IC50 [2] [nM] | IC50 [3] [nM] | IC50 [4] [nM]
1 | N#Cc1c(N)sc2c1C1(CC2)CN(c2nc(OC[C@@]34CCCN3C[C@H](F)C4)nc(N3CCCOCC3)n2)C1 [Compound 89, 2-amino-1′-[4-[[(2R,8S)-2-fluoro-1,2,3,5,6,7-hexahydropyrrolizin-8-yl]methoxy]-6-(1,4-oxazepan-4-yl)-1,3,5-triazin-2-yl]spiro[5,6-dihydrocyclopenta[b]thiophene-4,3′-azetidine]-3-carbonitrile] | 100 to 1000 | 100 to 1000 | 10 to 100 | < 10
2 | CC1(O)CC(F)CN(c2nc(OCC3(CN4CCOCC4)CC3)nc(N3CC4(CCc5sc(N)c(C#N)c54)C3)n2)C1 (stereo not shown) [Compound 93, 2′-amino-1-(4-(5-fluoro-3-hydroxy-3-methylpiperidin-1-yl)-6-((1-(morpholinomethyl)cyclopropyl)methoxy)-1,3,5-triazin-2-yl)-5′,6′-dihydrospiro[azetidine-3,4′-cyclopenta[b]thiophene]-3′-carbonitrile] | 10 to 100 | 10 to 100 | < 10 | < 10
3 | CC(c1cccnc1N)N(C)c1nc(OCC2(CN3CCOCC3)CC2)nc(N2CC3(CCc4sc(N)c(C#N)c43)C2)n1 (stereo not shown) [Compound 97, 2-amino-1′-[4-[1-(2-amino-3-pyridyl)ethyl-methyl-amino]-6-[[1-(morpholinomethyl)cyclopropyl]methoxy]-1,3,5-triazin-2-yl]spiro[5,6-dihydrocyclopenta[b]thiophene-4,3′-azetidine]-3-carbonitrile] | 1000 to 20000 | 100 to 1000 | 10 to 100 | < 10
4 | C[C@@]1(O)CCCN(c2nc(OCC3(CN4CCOCC4)CC3)nc(N3CC4(C3)c3c(sc(N)c3C#N)CC4(F)F)n2)C1 [Compound 98, 2-amino-5,5-difluoro-1′-[4-[(3R)-3-hydroxy-3-methyl-1-piperidyl]-6-[[1-(morpholinomethyl)cyclopropyl]methoxy]-1,3,5-triazin-2-yl]spiro[6H-cyclopenta[b]thiophene-4,3′-azetidine]-3-carbonitrile] | 10 to 100 | 100 to 1000 | < 10 | < 10
5 | N#CCC1(O)CCCN(c2nc(OCC3(CN4CCOCC4)CC3)nc(N3CC4(CCc5sc(N)c(C#N)c54)C3)n2)C1 (stereo not shown) [Compound 101, 2-amino-1′-[4-[3-(cyanomethyl)-3-hydroxy-1-piperidyl]-6-[[1-(morpholinomethyl)cyclopropyl]methoxy]-1,3,5-triazin-2-yl]spiro[5,6-dihydrocyclopenta[b]thiophene-4,3′-azetidine]-3-carbonitrile] | 100 to 1000 | 1000 to 20000 | 10 to 100 | < 10
6 | CN(C)CC1(COc2nc(N3CC4(C3)SCc3sc(N)c(C#N)c34)nc(N3CCC[C@@](C)(O)C3)n2)CC1(F)F (stereo partly drawn) [Compound 104, 2-amino-1′-[4-[[1-[(dimethylamino)methyl]-2,2-difluoro-cyclopropyl]methoxy]-6-[(3R)-3-hydroxy-3-methyl-1-piperidyl]-1,3,5-triazin-2-yl]spiro[6H-thieno[2,3-c]thiophene-4,3′-azetidine]-3-carbonitrile] | < 10 | 10 to 100 | < 10 | < 10
7 | N#Cc1c(N)sc2c1C1(CC2)CN(c2nc(OCC3(CN4CCOCC4)CC3)nc(N3CCCC(O)(C(F)F)C3)n2)C1 (stereo not shown) [Compound 106, 2-amino-1′-[4-[3-(difluoromethyl)-3-hydroxy-1-piperidyl]-6-[[1-(morpholinomethyl)cyclopropyl]methoxy]-1,3,5-triazin-2-yl]spiro[5,6-dihydrocyclopenta[b]thiophene-4,3′-azetidine]-3-carbonitrile] | 100 to 1000 | 1000 to 20000 | 10 to 100 | 10 to 100
8 | N#Cc1c(N)sc2c1C1(CC2)CN(c2nc(OC[C@@]34CCCN3C[C@H](F)C4)nc(N(CCO)Cc3cccnc3N)n2)C1 [Compound 107, 2-amino-1′-[4-[(2-amino-3-pyridyl)methyl-(2-hydroxyethyl)amino]-6-[[(2R,8S)-2-fluoro-1,2,3,5,6,7-hexahydropyrrolizin-8-yl]methoxy]-1,3,5-triazin-2-yl]spiro[5,6-dihydrocyclopenta[b]thiophene-4,3′-azetidine]-3-carbonitrile] | 10 to 100 | 10 to 100 | < 10 | < 10
9 | CC(c1cncnc1N)N(C)c1nc(OC[C@@]23CCCN2C[C@H](F)C3)nc(N2CC3(CCc4sc(N)c(C#N)c43)C2)n1 (stereo partly drawn) [Compound 108, 2-amino-1′-[4-[1-(4-aminopyrimidin-5-yl)ethyl-methyl-amino]-6-[[(2R,8S)-2-fluoro-1,2,3,5,6,7-hexahydropyrrolizin-8-yl]methoxy]-1,3,5-triazin-2-yl]spiro[5,6-dihydrocyclopenta[b]thiophene-4,3′-azetidine]-3-carbonitrile] | 10 to 100 | 10 to 100 | < 10 | < 10
10 | CC(c1ccnnc1N)N(C)c1nc(OC[C@@]23CCCN2C[C@H](F)C3)nc(N2CC3(CCc4sc(N)c(C#N)c43)C2)n1 (stereo partly drawn) [Compound 109, 2-amino-1′-[4-[1-(3-aminopyridazin-4-yl)ethyl-methyl-amino]-6-[[(2R,8S)-2-fluoro-1,2,3,5,6,7-hexahydropyrrolizin-8-yl]methoxy]-1,3,5-triazin-2-yl]spiro[5,6-dihydrocyclopenta[b]thiophene-4,3′-azetidine]-3-carbonitrile] | 100 to 1000 | 10 to 100 | < 10 | < 10
11 | CC1(C#N)CCCCN(c2nc(OC[C@@]34CCCN3C[C@H](F)C4)nc(N3CC4(CCc5sc(N)c(C#N)c54)C3)n2)C1 (stereo partly drawn) [Compound 111, 2-amino-1′-[4-(3-cyano-3-methyl-azepan-1-yl)-6-[[(2R,8S)-2-fluoro-1,2,3,5,6,7-hexahydropyrrolizin-8-yl]methoxy]-1,3,5-triazin-2-yl]spiro[5,6-dihydrocyclopenta[b]thiophene-4,3′-azetidine]-3-carbonitrile] | 100 to 1000 | 100 to 1000 | < 10 | < 10
12 | C[C@@]1(O)CCCN(c2nc(OC[C@@]34CCCN3C[C@H](F)C4)nc(N3CC4(C3)c3c(sc(N)c3C#N)CC4(F)F)n2)C1 [Compound 114, 2-amino-5,5-difluoro-1′-[4-[[(2R,8S)-2-fluoro-1,2,3,5,6,7-hexahydropyrrolizin-8-yl]methoxy]-6-[(3R)-3-hydroxy-3-methyl-1-piperidyl]-1,3,5-triazin-2-yl]spiro[6H-cyclopenta[b]thiophene-4,3′-azetidine]-3-carbonitrile] | 10 to 100 | 100 to 1000 | < 10 | < 10
13 | CC(c1cccnc1N)N(C)c1nc(OCCc2nccn2C)nc(N2CC3(CCc4sc(N)c(C#N)c43)C2)n1 (stereo not shown) [Compound 117, 2-amino-1′-[4-[1-(2-amino-3-pyridyl)ethyl-methyl-amino]-6-[2-(1-methylimidazol-2-yl)ethoxy]-1,3,5-triazin-2-yl]spiro[5,6-dihydrocyclopenta[b]thiophene-4,3′-azetidine]-3-carbonitrile] | 100 to 1000 | 100 to 1000 | 100 to 1000 | 10 to 100
